Data on 16 compounds can be found in patent publication US8575160B2, “Imidazole derivatives as aldosterone synthase inhibitors” (Novartis AG, priority 2009, dated 2013).

The target in experiment [1] is T1, aldosterone synthase (CYP11B2) (Homo sapiens, UniProt P19099).
T1 construct: host or cells: NCI-H295R
T1 sequence (P19099 25-503): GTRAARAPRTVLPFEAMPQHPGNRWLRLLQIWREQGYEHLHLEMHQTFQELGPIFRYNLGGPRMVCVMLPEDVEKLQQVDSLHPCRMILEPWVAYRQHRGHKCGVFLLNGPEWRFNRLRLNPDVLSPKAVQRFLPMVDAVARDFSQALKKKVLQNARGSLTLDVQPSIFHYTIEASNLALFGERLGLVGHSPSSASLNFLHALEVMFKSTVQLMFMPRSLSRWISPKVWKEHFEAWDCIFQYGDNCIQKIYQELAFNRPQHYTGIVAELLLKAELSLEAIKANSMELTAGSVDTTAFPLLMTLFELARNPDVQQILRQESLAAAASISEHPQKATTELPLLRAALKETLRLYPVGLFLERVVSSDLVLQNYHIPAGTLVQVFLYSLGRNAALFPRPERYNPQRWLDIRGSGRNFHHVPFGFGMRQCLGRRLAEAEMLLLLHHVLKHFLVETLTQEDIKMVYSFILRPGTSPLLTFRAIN
The experiment is described as follows: cellular aldosterone production in NCI-H295R cells (aldosterone synthase inhibition). Format: cell-based. The source says: In particular, the aldosterone synthase inhibitory activities in vitro can be determined by the following assay.
Human adrenocortical carcinoma NCI-H295R cell line was obtained from American Type Culture Collection (Manassas, Va.). Insulin/transferrin/selenium (ITS)-A supplement (100×), DMEM/F-12, antibiotic/antimycotic (100×), and fetal bovine serum (FBS) were purchased from Invitrogen (Carlsbad, Calif.). Anti-mouse PVT scintillation proximity assay (SPA) beads and NBS 96-well plates were obtained from GE Health Sciences (Piscataway, N.J.) and Corning (Acton, Mass.), respectively. Solid black 96-well flat bottom plates were purchased from Costar (Corning, N.Y.). Aldosterone and angiotensin (Ang II) were purchased from Sigma (St. Louis, Mo.). D[1,2,6,7-^3H(N)]aldosterone was acquired from PerkinElmer (Boston, Mass.). Nu-serum was a product of BD Biosciences (Franklin Lakes, N.J.).
For in vitro measurement of aldosterone activity, human adrenocortical carcinoma NCI-H295R cells are seeded in NBS 96-well plates at a density of 25,000 cells/well in 100 μl of a growth medium containing DMEM/F12 supplemented with 10% FCS, 2.5% Nu-serum, 1 μg ITS/ml, and 1× antibiotic/antimycotic. The medium is changed after culturing for 3 days at 37° C. under an atmosphere of 5% CO2/95% air. On the following day, cells are rinsed with 100 μl of phosphate-buffered saline (PBS) and incubated with 100 μl of treatment medium containing 1 μM Ang II and a compound at different concentrations in quadruplicate wells at 37° C. for 24 hr. At the end of incubation, 50 μl of medium is withdrawn from each well for measurement of aldosterone production by an SPA using mouse anti-aldosterone monoclonal antibodies.
Measurement of aldosterone activity can also be performed using a 96-well plate format. Each test sample is incubated with 0.02 μCi of D[1,2,6,7-^3H(N)]aldosterone and 0.3 μg of anti-aldosterone antibody in PBS containing 0.1% Triton X-100, 0.1% bovine serum albumin, and 12% glycerol in a total volume of 200 μl at room temperature for 1 hr. Anti-mouse PVT SPA beads (50 μl) are then added to each well and incubated overnight at room temperature prior to counting in a Microbeta plate counter. The amount of aldosterone in each sample is calculated by comparing with a standard curve generated using known quantities of the hormone.
(§1) Inhibition of the release of certain steroids can be used as a measure of the respective enzyme inhibition by the added test compounds. The dose-dependent inhibition of enzymic activity by a compound is calculated by means of an inhibition plot which is characterized by an IC50.
(§2) The IC50 values for active test compounds are ascertained by a simple linear regression analysis in order to construct inhibition plots without data weighting. The inhibition plot is calculated by fitting a 4-parameter logistic function to the raw data points using the least squares method. The equation of the 4-parameter logistic function is calculated as follows: Y=(d−a)/((1+(x/c)b))+a, where: a=minimum data level, b=gradient, I […], d=maximum data level, x=inhibitor concentration.

The target of another experiment is T2, CYP11B1 (Homo sapiens, UniProt P15538).
T2 construct: the NCI-H295R cells have CYP11 B1 (steroid 11 β-hydroxylase); host or cells: NCI-H295R
T2 sequence (P15538 25-503): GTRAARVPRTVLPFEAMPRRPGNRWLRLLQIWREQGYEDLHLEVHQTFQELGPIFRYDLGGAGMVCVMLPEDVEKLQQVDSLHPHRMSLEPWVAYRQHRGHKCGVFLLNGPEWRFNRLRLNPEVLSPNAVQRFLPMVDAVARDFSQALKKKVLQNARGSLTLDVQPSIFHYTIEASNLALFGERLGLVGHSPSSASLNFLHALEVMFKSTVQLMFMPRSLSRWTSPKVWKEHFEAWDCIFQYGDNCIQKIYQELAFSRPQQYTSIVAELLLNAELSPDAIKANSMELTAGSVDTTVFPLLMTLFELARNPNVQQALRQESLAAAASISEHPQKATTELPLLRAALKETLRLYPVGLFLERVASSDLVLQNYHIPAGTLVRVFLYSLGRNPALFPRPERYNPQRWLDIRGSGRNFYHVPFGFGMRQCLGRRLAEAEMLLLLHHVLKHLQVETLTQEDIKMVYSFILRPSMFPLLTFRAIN
As to the kind of experiment: cellular cortisol production in NCI-H295R cells (CYP11B1 inhibition). Format: cell-based.
From the text: The in vitro inhibitory activities for CYP11B1 can be determined by the following assay.
The cell line NCI-H295R was originally isolated from an adrenocortical carcinoma and has been characterized in the literature through the stimulable secretion of steroid hormones and the presence of the enymes essential for steroidogenesis. Thus, the NCI-H295R cells have CYP11 B1 (steroid 11 β-hydroxylase). The cells show the physiological property of zonally undifferentiated human foetal adrenocortical cells which, however, have the capacity to produce the steroid hormones which are formed in the three, phenotypically distinguishable zones in the adult adrenal cortex.
The NCI-H295R cells (American Type Culture Collection, ATCC, Rockville, Md., USA) are grown in Dulbeoco's Modified Eagle'Ham F-12 Medium (DME/F12), which has been supplemented with Ulroser SF Serum (Soprachem, Cergy-Saint-Christophe, France), insulin, transferrin, selenite (I-T-S, Becton Dickinson Biosiences, Franklin lakes, NJ, USA) and antibiotics in 75 cm^2 cell culture vessels at 37° C. and in a 95% air-5% carbon dioxide atmosphere. The cells are subsequently transferred for colony formation into a 24-well incubation vessel. They are cultivated there in DME/F12 medium, which is now supplemented with 0.1% bovine serum instead of Ultroser SF for 24 hours. The experiment is initiated by cultivating the cells in DME/F12 medium which is supplemented with 0.1% bovine serum albumin and test compound, in the presence or absence of cell stimulants, for 72 hours. The test substance is added in a concentration range from 0.2 nanomolar to […]. Cell stimulants which can be used are angiotensin 11 (1 D or 100 nanomolar), potassium ions (16 millimolar), forskolin (10 micromolar) or a combination of two stimulants.
The excretion of aldosterone, cortisol, corticosterone and estradiol/estrone into the culture medium can be detected and quantified by commercially available, specific monoclonal antibodies in radioimmunoassays in accordance with the manufacturer's instructions.
as §1, §2

The structures appear in SMILES notation.

`C=C[C@@]1(O)C[C@H](c2ccc(C#N)cc2F)n2cncc21` [Example 1-1, 3-fluoro-4-((5R,7S)-7-hydroxy-7-vinyl-6,7-dihydro-5H-pyrrolo[1,2-c]imidazol-5-yl)benzonitrile]: the IC50 in experiment [1] came to 0.011 µM; at CYP11B1, 0.472 µM.
For `Cn1c([C@@]2(O)C[C@H](c3ccc(C#N)cc3F)n3cncc32)cc2ccccc21` [Example 1-50] the same measures were 0.007 µM and 1.8 µM.
On to `COc1cc(-c2cccc([C@@]3(O)C[C@H](c4ccc(C#N)cc4F)n4cncc43)c2)ccn1` [Example 2-10], for which the IC50 came out at 0.006 µM in experiment [1] and 0.338 µM on CYP11B1.
On the same counts, the results for `N#Cc1ccc([C@H]2C[C@](O)(c3cccc(C4CC4)c3)c3cncn32)c(F)c1` [Example 1-2, 4-((5R,7S)-7-(3-cyclopropylphenyl)-7-hydroxy-6,7-dihydro-5H-pyrrolo[1,2-c]imidazol-5-yl)-3-fluorobenzonitrile] are 0.027 µM and 0.084 µM.
For `N#Cc1ccc([C@H]2CC[C@](O)(c3ccc(-c4ccccc4)cc3)c3cncn32)cc1` [Example 1-41] the same measures were 0.072 µM and 0.135 µM.
Consider `N#Cc1ccc([C@H]2C[C@](O)(c3cccc(-c4ccc(F)cc4)c3)c3cncn32)c(F)c1` [Example 1-30], for which the values for the IC50 (in experiment [1]; at CYP11B1) were 0.025 µM and 0.522 µM, respectively.
For `Cc1ccc([C@@]2(O)C[C@H](c3ccc(C#N)cc3F)n3cncc32)cc1C` [Example 1-4, 4-((5R,7S)-7-(3,4-dimethylphenyl)-7-hydroxy-6,7-dihydro-5H-pyrrolo[1,2-c]imidazol-5-yl)-3-fluorobenzonitrile], the IC50 was 0.005 µM in experiment [1] and 0.48 µM at CYP11B1.
For `CCc1ccc([C@@]2(O)C[C@H](c3ccc(C#N)cc3F)n3cncc32)cc1` [Example 1-32] the same measures were 0.006 µM and 0.645 µM.
On the same counts, the results for `Cc1cc(-c2ccc([C@@]3(O)C[C@H](c4ccc(C#N)cc4F)n4cncc43)cc2)ccn1` [Example 3-14] are 0.064 µM and 10.2 µM.
On the same counts, the results for `N#Cc1ccc([C@H]2C[C@](O)(CC(=O)Nc3cccc(OC(F)(F)F)c3)c3cncn32)c(F)c1` [Example 4-15] are 0.072 µM and 8.78 µM.
Regarding `CC1(C)[C@H](c2ccc(C#N)cc2F)n2cncc2[C@@]1(O)c1ccc(F)cc1` [Example 1-53, 3-fluoro-4-((5R,7R)-7-(4-fluorophenyl)-7-hydroxy-6,6-dimethyl-6,7-dihydro-5H-pyrrolo[1,2-c]imidazol-5-yl)benzonitrile], the IC50 in experiment [1] was determined as 0.042 µM; at CYP11B1 it was 0.22 µM.
In the case of `N#Cc1ccc([C@H]2C[C@](O)(c3ccc4c(c3)OCO4)c3cncn32)c(F)c1` [Example 1-13], the IC50 in experiment [1] turned out to be 0.034 µM; on CYP11B1 it was 0.103 µM.
For `N#Cc1ccc([C@H]2C[C@](O)(CCc3ccccc3)c3cncn32)c(F)c1` [Example 1-12], the IC50 amounted to 0.002 µM in experiment [1] and 0.006 µM at CYP11B1.
For the compound `N#Cc1ccc([C@H]2C[C@](O)(C#CC3CC3)c3cncn32)c(F)c1` [Example 1-52, 4-((5R,7S)-7-(cyclopropylethynyl)-7-hydroxy-6,7-dihydro-6H-pyrrolo[1,2-c]imidazol-5-yl)-3-fluorobenzonitrile], the IC50 in experiment [1] turned out to be 0.142 µM; at CYP11B1, 0.273 µM.
On the same counts, the results for `N#Cc1ccc([C@H]2C[C@@](O)(c3ccc4ccccc4c3)c3cncn32)c(F)c1` [Example 1-17] are 0.001 µM and 0.014 µM.
On the same counts, the results for `N#Cc1ccc([C@H]2C[C@](O)(c3ccc4ccccc4c3)c3cncn32)c(F)c1` [Example 1-16] are 0.002 µM and 0.143 µM.
